Assay results: patent publication US7528170B2, “Sulfonamide derivatives for the treatment of diseases” (Pfizer Inc., priority 2004, dated 2009)

Each molecule was assayed against T1, human β2 adrenergic receptor (Homo sapiens, UniProt P07550) (assay: β2 cAMP agonist potency assay in CHOhβ2 cells (cAMP-Flashplate)). Details: CHO cells recombinantly expressing the human β2 adrenergic receptor; compounds incubated with cells for 1 hour; data as % Isoprenaline activity, four parameter sigmoid fit.
T1 construct: expressed in transfected cells; host or cells: CHO (Chinese Hamster Ovary) cells, CHOhβ2
Type: cell-based
Experimental: According to another alternative, the agonist potency for the β2 receptor of the compounds of the formula (1) may also be determined by the measure of the concentration of compound according to the present invention required to produce half maximal effect (EC50) for the β2 receptor.
10 mM/100% DMSO (dimethylsulfoxide) stock of compound is diluted to required top dose in 4% DMSO. This top dose is used to construct a 10-point semi-log dilution curve, all in 4% DMSO. Isoprenaline (Sigma, 1-5627) was used as a standard in every experiment and for control wells on each plate. Data was expressed as % Isoprenaline response.
CHO (Chinese Hamster Ovary) cells recombinantly expressing the human β2 adrenergic receptor (from Kobilka et al., PNAS 84: 46-50, 1987 and Bouvier et al., Mol Pharmacol 33: 133-139 1988 CHOhβ2) were grown in Dulbeccos MEM/NUT MIX F12 (Gibco, 21331-020) supplemented with 10% foetal bovine serum (Sigma, F4135, Lot 90K8404 Exp 09/04), 2 mM glutamine (Sigma, G7513), 500 μg/ml geneticin (Sigma, G7034) and 10 μg/ml puromycin (Sigma, P8833). Cells were seeded to give about 90% confluency for testing.
25 μl/well each dose of compound was transferred into a cAMP-Flashplate® (NEN, SMP004B), with 1% DMSO as basal controls and 100 nM Isoprenaline as max controls. This was diluted 1:2 by the addition of 25 μl/well PBS. Cells were trypsinised (0.25% Sigma, T4049), washed with PBS (Gibco, 14040-174) and resuspended in stimulation buffer (NEN, SMP004B) to give 1×10^6 cells/ml CHOhB2. Compounds were incubated with 50 μl/well cells for 1 hour. Cells were then lysed by the addition of 100 μl/well detection buffer (NEN, SMP004B) containing 0.18 μCi/ml ^125I-cAMP (NEN, NEX-130) and plates were incubated at room temperature for a further 2 hours. The amount of ^125I-cAMP bound to the Flashplate® was quantified using a Topcount NXT (Packard), normal counting efficiency for 1 minute. Dose-response data was expressed as % Isoprenaline activity and fitted using a four parameter sigmoid fit. […] The following table illustrate the activity of the compounds of the invention: […]

T1 sequence (P07550 whole entry): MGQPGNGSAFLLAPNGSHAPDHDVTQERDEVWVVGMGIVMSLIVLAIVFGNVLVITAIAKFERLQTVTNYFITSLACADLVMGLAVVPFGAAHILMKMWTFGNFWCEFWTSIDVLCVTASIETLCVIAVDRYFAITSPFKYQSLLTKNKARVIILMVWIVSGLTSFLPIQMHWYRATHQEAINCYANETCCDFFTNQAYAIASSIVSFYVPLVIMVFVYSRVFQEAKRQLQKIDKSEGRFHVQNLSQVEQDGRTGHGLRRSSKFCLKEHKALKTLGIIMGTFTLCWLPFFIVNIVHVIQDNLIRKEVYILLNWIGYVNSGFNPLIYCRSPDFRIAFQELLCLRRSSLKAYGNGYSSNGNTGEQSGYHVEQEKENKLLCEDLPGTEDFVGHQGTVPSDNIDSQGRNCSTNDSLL

Structure (SMILES)	EC50 [nM]
CC(C)(Cc1cccc(CC(=O)NCc2ccc(-c3ccc(O)cc3)cc2)c1)NC[C@H](O)c1ccc(O)c(NS(C)(=O)=O)c1 [Example 2, N-[(4′-Hydroxybiphenyl-4-yl)methyl]-2-(3-{2-[((2R)-2-hydroxy-2-{4-hydroxy-3-[(methylsulfonyl)amino]phenyl}ethyl)amino]-2-methylpropyl}phenyl)acetamide]	0.24
CC(C)(Cc1cccc(CC(=O)NCc2cccc(-c3ccc(O)cc3)c2)c1)NC[C@H](O)c1ccc(O)c(NS(C)(=O)=O)c1 [Example 7, N-[(4′-Hydroxybiphenyl-3-yl)methyl]-2-(3-{2-[((2R)-2-hydroxy-2-{4-hydroxy-3-[(methylsulfonyl)amino]phenyl}ethyl)amino]-2-methylpropyl}phenyl)acetamide]	0.26
CC(C)(Cc1cccc(CC(=O)NCC(C)(C)c2ccc(O)cc2)c1)NC[C@H](O)c1ccc(O)c(NS(C)(=O)=O)c1 [Example 9, 2-(3-{2-[((2R)-2-Hydroxy-2-(4-hydroxy-3-[(methylsulfonyl)amino]phenyl)ethyl)amino]-2-methylpropyl}phenyl)-N-[2-(4-hydroxyphenyl)-2-methylpropyl]acetamide]	0.45
CC(C)(Cc1cccc(CC(=O)NCc2cc(O)cc(C(F)(F)F)c2)c1)NC[C@H](O)c1ccc(O)c(NS(C)(=O)=O)c1 [Example 20, 2-(3-{2-[((2R)-2-Hydroxy-2-{4-hydroxy-3-[(methylsulfonyl)amino]phenyl}ethyl)amino]-2-methylpropyl}phenyl)-N-[3-hydroxy-5-(trifluoromethyl)benzyl]acetamide]	0.29

Stronger by EC50, values ahead:

EC50 [nM]	Structure (SMILES)
0.16	CC(C)(Cc1cccc(CC(=O)NCc2ccc3cc(O)ccc3c2)c1)NC[C@H](O)c1ccc(O)c(NS(C)(=O)=O)c1 [Example 6]
0.09	CC(C)(Cc1cccc(CC(=O)NCCc2ccc(O)cc2)c1)NC[C@H](O)c1ccc(O)c(NS(C)(=O)=O)c1 [Example 15, 2-(3-{2-[((2R)-2-Hydroxy-2-{4-hydroxy-3-[(methylsulfonyl)amino]phenyl}ethyl)amino]-2-methylpropyl}phenyl)-N-[2-(4-hydroxyphenyl)ethyl]acetamide]
0.08	CC(C)(Cc1cccc(CC(=O)N2CCc3cc(O)ccc3C2)c1)NC[C@H](O)c1ccc(O)c(NS(C)(=O)=O)c1 [Example 13, N-(2-Hydroxy-5-{(1R)-1-hydroxy-2-[(2-{3-[2-(6-hydroxy-3,4-dihydroisoquinolin-2(1H)-yl)-2-oxoethyl]phenyl}-1,1-dimethylethyl)amino]ethyl}phenyl)methanesulfonamide]
0.03	COc1cc(CNC(=O)Cc2cccc(CC(C)(C)NC[C@H](O)c3ccc(O)c(NS(C)(=O)=O)c3)c2)ccc1O [Example 1, 2-(3-{2-[((2R)-2-Hydroxy-2-{4-hydroxy-3-[(methylsulfonyl)amino]phenyl}ethyl)amino]-2-methylpropyl}phenyl)-N-(4-hydroxy-3-methoxybenzyl)acetamide]
